Entries after “also recorded” stand apart in the source; their conditions may differ.

The subject of test [1] is human iPSC-derived microglia (WT and TREM2 KO). Briefly: In vitro lipid storage assay, lipidomics by LC/MS, iPSC microglia treated with myelin. The class given is cell-based. Conditions: myelin 25 ug/mL 48 h, LXR agonist 10 uM; for cholesteryl ester (CE) accumulation: WT and TREM2 KO iPSC microglia. How it is done: Lipid analyses were performed by liquid chromatography (Shimadzu Nexera X2 system, Shimadzu Scientific Instrument, Columbia, Md., USA) coupled to electrospray mass spectrometry (QTRAP 6500+, Sciex, Framingham, Mass., USA). For each analysis, 5 μL of sample was injected on a BEH C18 1.7 μm, 2.1×100 mm column (Waters Corporation, Milford, Mass., USA) using a flow rate of 0.25 mL/min at 55° C. For positive ionization mode, mobile phase A consisted of 60:40 acetonitrile/water (v/v) with 10 mM ammonium formate+0.1% formic acid; mobile phase B consisted of 90:10 isopropyl alcohol/acetonitrile (v/v) with 10 mM ammonium formate+0.1% formic acid. For negative ionization mode, mobile phase A consisted of 60:40 acetonitrile/water (v/v) with 10 mM ammonium acetate; mobile phase B consisted of 90:10 isopropyl alcohol/acetonitrile (v/v) with 10 mM ammonium acetate. The gradient was programmed as follows: 0.0-8.0 min from 45% B to 99% B, 8.0-9.0 min at 99% B, 9.0-9.1 min to 45% B, and 9.1-10.0 min at 45% B. Electrospray ionization was performed in either positive or negative ion mode applying the following settings: curtain gas at 30; collision gas was set at medium; ion spray voltage at 5500 (positive mode) or 4500 (negative mode); temperature at 250° C. (positive mode) or 600° C. (negative mode); ion source Gas 1 at 50; ion source Gas 2 at 60. Data acquisition was performed using Analyst 1.6.3 (Sciex) in multiple reaction monitoring mode (MRM), with the following parameters: dwell time (msec) and collision energy (CE) for each species reported in Table 2 (positive mode) or Table 3 (negative mode); declustering potential (DP) at 80; entrance potential (EP) at 10 (positive mode) or −10 (negative mode); and collision cell exit potential (CXP) at 12.5 (positive mode) or −12.5 (negative mode). Lipids were identified based on their retention times and MRM properties of commercially available reference standards (Avanti Polar Lipids, Birmingham, Ala., USA). Quantification was performed using MultiQuant 3.02 (Sciex). Metabolites were normalized to either total protein amount or cell number. […]

The target of another test is TREM2 (Homo sapiens, UniProt Q9NZC2). In words: pSYK AlphaLISA in TREM2/DAP12-expressing stable HEK293 cells. The class given is cell-based. The arrangement: expressed in transfected cells. Conditions: for binding to and signaling via TREM2 (overall conclusion): conclusion from pSYK and SPR studies. On the procedure:
70 molar percent DOPC (1,2-dioleoyl-sn-glycero-3-phosphocholine, Avanti Polar Lipids) and 30 molar percent of one test lipid were combined in chloroform in a glass vial and dried under a stream of N2 gas for 1-2h, or until completely dry. Test lipids included sulfatide (Avanti), POPS (Avanti), SM (Avanti), PI (Avanti), GalCer (Avanti), PE (Echelon Biosciences), and free cholesterol (Echelon Biosciences). The lipid mixture was re-suspended in HBSS (1-2 mg/mL final lipid concentration) and vortexed for 2-3 min. Subsequently, the lipid suspension was bath sonicated for 10 minutes. For surface plasmon resonance experiments, liposomes were extruded 10 times using an Avanti mini-extruder constructed with one 100 nm pore size membrane to form small unilamellar vesicles.
HEK293 cells were transfected with a pBudCE4.1 Mammalian Expression Vector (ThermoFisher) expressing wildtype human TREM2 and DAP12, and DAP12 alone. Stable expressing clones were selected and the cell surface TREM2 expression was evaluated by flow cytometry with APC-conjugated rat-anti-human/mouse-TREM2 monoclonal (R&D MAB17291). The highest wild type TREM2 expressing clone was selected for expansion. The clones stably expressing DAP12 were analyzed by Western blot.
Activation of TREM2-dependent pSYK signaling was measured using a commercial AlphaLISA assay (PerkinElmer). HEK293 cells: Two days before the experiment, HEK293 cells stably overexpressing TREM2 and DAP12 were plated at 40,000 cells/well on 96 well poly-D-lysine-coated plate. Differentiated human macrophage and BMDM were plated at 100,000 cells/well on tissue-culture treated 96-well plates. Cells were washed once with HBSS, then 50 μL of liposome mixture was added per well. For competition experiments, hTREM2-ECD or TREM1-his (Novoprotein Scientific) was incubated with liposomes for 1 hour at room temperature before adding to cells. 5 μg/mL human-specific mouse anti-TREM2 (Abnova) or 15 μg/mL mouse-specific sheep anti-TREM2 (R&D Systems) was added to each experiment as a positive control with side-by-side isotype controls, 5 μg/mL mouse IgG3 (R&D Systems) and 15 μg/mL polyclonal sheep IgG (R&D Systems), respectively. The cell plate was then transferred to a 37° C. incubator for 5 minutes. The liposome solution was discarded and 40 uL lysis buffer (Cell Signaling Technologies, CST). Lysate was incubated at 4 C for 30 min, then either frozen at −80 C or immediately carried forward to the alpha-LISA assay. Lysates were assayed using the standard protocol for the PerkinElmer pSYK AlphaLISA kit. 10 μL of lysate/well was transferred to a white opaque 384 well Optiplate (PerkinElmer). 5 μL of Acceptor Mix (containing the working solution of acceptor beads) was added per well followed by sealing of plates with foil seals and incubation 1 hour at room temperature. 5 μL of Donor Mix (containing the working solution of donor beads) was added to each well under reduced light conditions. Plates were again sealed and incubated 1 hour at room temperature. Plates were read using AlphaLISA settings on a PerkinElmer EnVision plate reader.

TREM2, sequence (Q9NZC2 19-230): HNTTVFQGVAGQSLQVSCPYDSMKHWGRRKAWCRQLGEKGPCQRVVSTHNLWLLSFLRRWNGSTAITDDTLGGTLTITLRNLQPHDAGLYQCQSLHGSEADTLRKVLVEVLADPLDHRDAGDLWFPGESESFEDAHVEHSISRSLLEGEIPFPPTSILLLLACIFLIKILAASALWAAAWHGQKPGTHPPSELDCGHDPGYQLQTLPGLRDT
TREM2, sequence (O43914 22-113 partner): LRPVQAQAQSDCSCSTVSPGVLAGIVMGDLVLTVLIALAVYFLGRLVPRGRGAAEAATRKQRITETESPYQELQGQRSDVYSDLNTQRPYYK

With `O=C(O)Cc1cccc(OCCCN(Cc2cccc(C(F)(F)F)c2Cl)CC(c2ccccc2)c2ccccc2)c1` [GW3965], in test [1] (TREM2 KO iPSC microglia), the cholesterol levels entry is on record as “not rescued”. Further, the figures for the “cholesteryl ester (CE) accumulation” value in test [1] and in test [1] (listed as GW3695) were “rescued; also recorded: reduced” and “rescued the accumulation of all CE species measured”, respectively.

Regarding galactosylceramide [GalCer], at TREM2, the “binding to and signaling via TREM2 (overall conclusion)” value (from here on “binding to and signaling via TREM2”) is “did not appear to bind and signal via TREM2”. Regarding phosphatidylethanolamine [PE], the “binding to and signaling via TREM2” value at TREM2 was “did not appear to bind and signal via TREM2”.

For the compound phosphatidylinositol [PI], at TREM2, the “binding to and signaling via TREM2” value was “did not appear to bind and signal via TREM2”. Further, the pSYK levels entry on TREM2 (liposomes 30% test lipid/70% PC, or oxLDL, vs DAP12-only cells and buffer control) is reported as “significantly increased pSYK levels”. sphingomyelin [SM]: the “binding to and signaling via TREM2” value at TREM2 is “did not appear to bind and signal via TREM2”.

(Values after patent publication US20230132366A9, “METHODS FOR TREATING DYSREGULATED LIPID METABOLISM” (DENALI THERAPEUTICS INC., priority 2018, published 2023).)
